The values below are quoted from earlier work in US20120087859A1, “NANOCARRIER HAVING ENHANCED SKIN PERMEABILITY, CELLULAR UPTAKE AND TUMOUR DELIVERY PROPERTIES” (GWANGJU INSTITUTE OF SCIENCE AND TECHNOLOGY, priority 2010, published 2012).

The series deals with NIH/3T3 fibroblasts. The conditions noted are these: cultured NIH/3T3 fibroblasts in vitro.

In the case of `CC(C)(O)C(=O)c1ccc(OCCO)cc1` [Irgacure 2959, 2-hydroxy-1-[4-(2-hydroxyethoxy)phenyl]-2-methyl-1-propanone], the cytotoxicity result is on record as “almost non-cytotoxic”.
